The text below walks through data of article PMC8092108, “Mycophenolate suppresses inflammation by inhibiting prostaglandin synthases: a study of molecular and experimental drug repurposing” (PeerJ, 2021).

For orientation: IC50 means the concentration that inhibits the measured activity by half.

“And” between values parts separate entries of the source, which are not always exact repeats. Equal entries are not always repeated. Where two headings read alike, the source gives them in different places.

In series [1] the test system is carrageenan-induced paw edema. The series is described as follows: Carrageenan-induced rat paw edema test. The series is classed as in vivo. The note with it: for Rat paw edema after treatment: MMF 12.5–50 mg/kg, indomethacin or celecoxib 10 mg/kg oral; for Rat paw size: individual rats 1-7. The method, then:
The in vivo assay was performed by the rat paw edema inhibition test as previously described ([Morris, 2003]; [Winter, Risley & Nuss, 1962]). Forty-nine male adult albino rats weighing […] were obtained from the Animal Breeding Center at the College of Veterinary Medicine, King Faisal University, and were randomly divided into seven groups (n = 7/group). The animal groups included the nontreated control group, carrageenan group, and five groups receiving carrageenan and treated with either indomethacin, celecoxib, or MMF at three doses (12.5, 25, and 50 mg/kg). All rats were allowed free access to food and water. All cages were kept in controlled rooms at 25 °C and exposed to a 12-h light/dark cycle. MMF and two reference drugs, indomethacin and celecoxib, were suspended in 1% NaCMC in normal saline. A 1% carrageenan solution in normal saline was injected into the subplantar area of the right hind paw of rats. One hour before injection of carrageenan, rats were given either indomethacin or celecoxib at a dose rate of 10 mg/kg or MMF at three dose levels of 12.5, 25, and 50 mg/kg by oral administration. […] The measurements were blind to avoid measurement bias. The King Faisal University Ethics Committee (approval no. KFU-REC/2020-10-11) approved all animal experiments. Since no samples were taken from rats, there were no anesthesia procedures. The size of the hind paw was only measured in non-anesthetized rats. At the end of the experiment, all rats were euthanized according to the regulations of the King Faisal University Ethics Committee by an overdose of pentobarbital (200 mg/kg IP) and decapitation. The effect of MMF at different doses on relieving rat paw edema was compared with the control and standard NSAID-treated groups. Significant differences were determined by one-way analysis of variance (ANOVA) with Tukey’s post hoc test. All steps were implemented using GraphPad prism software (GraphPad Software, La Jolla, CA, USA).
Background: Carrageenan injected into the paw causes an acute inflammation.

In the next series the test system is 12-LOX. The series is described as follows: LOX inhibitor screening kit. Format: biochemical. The method, then:
The inhibitory effects of the drugs MMF and MPA on COX-1 and COX-2 were measured using the COX inhibitor screening assay kit and LOX inhibitor screening kit. The assay was performed according to the manufacturer’s directions and previously described methods ([Chowdhury et al., 2008]; [Lee et al., 2004]). Briefly, the reaction buffer (Tris–HCl buffer, pH 8.0) containing 5 mM EDTA, 2 mM phenol, and 1 µM hematin was measured into test tubes. The test drugs were dissolved in dimethyl sulfoxide and added to the tubes to final concentrations of […]. COX-1 or COX-2 was added to the test tubes and preincubated for 10 min at 37 °C. Arachidonic acid was then added, and the tubes were incubated for 2 min at 37 °C. The enzyme immunoassay was used to measure the concentration of the product prostaglandin F2α (PGF2α). The estimated values were determined after comparison to the predetermined standard curve. The IC50 was determined after three different experiments. The selectivity index was calculated from Eq. (1): […]

The target of the next series is T1, COX-1 (Ovis aries, UniProt P05979).
T1 construct: purchased
T1 sequence (P05979 25-600): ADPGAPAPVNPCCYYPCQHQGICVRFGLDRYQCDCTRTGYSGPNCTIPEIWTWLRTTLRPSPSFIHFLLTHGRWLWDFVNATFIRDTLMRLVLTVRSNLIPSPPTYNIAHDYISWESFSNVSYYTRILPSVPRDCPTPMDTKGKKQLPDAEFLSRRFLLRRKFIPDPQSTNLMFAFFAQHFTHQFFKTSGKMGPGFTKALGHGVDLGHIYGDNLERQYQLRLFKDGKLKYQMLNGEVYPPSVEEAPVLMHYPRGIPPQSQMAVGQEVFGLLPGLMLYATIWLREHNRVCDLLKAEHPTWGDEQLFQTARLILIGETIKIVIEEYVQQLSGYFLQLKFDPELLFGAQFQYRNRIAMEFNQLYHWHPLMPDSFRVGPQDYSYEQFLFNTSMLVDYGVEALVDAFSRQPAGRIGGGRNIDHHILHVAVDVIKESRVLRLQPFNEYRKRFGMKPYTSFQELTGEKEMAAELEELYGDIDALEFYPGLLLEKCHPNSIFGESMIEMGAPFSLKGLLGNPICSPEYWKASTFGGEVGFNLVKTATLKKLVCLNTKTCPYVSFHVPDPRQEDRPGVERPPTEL
The series is described as follows: COX inhibitor screening assay, COX-1. The series is classed as biochemical. The method, then: (§1) The inhibitory effects of the drugs MMF and MPA on COX-1 and COX-2 were measured using the COX inhibitor screening assay kit and LOX inhibitor screening kit. […] Briefly, the reaction buffer (Tris–HCl buffer, pH 8.0) containing 5 mM EDTA, 2 mM phenol, and 1 µM hematin was measured into test tubes. The test drugs were dissolved in dimethyl sulfoxide and added to the tubes to final concentrations of […]. COX-1 or COX-2 was added to the test tubes and preincubated for 10 min at 37 °C. Arachidonic acid was then added, and the tubes were incubated for 2 min at 37 °C. The enzyme immunoassay was used to measure the concentration of the product prostaglandin F2α (PGF2α). The estimated values were determined after comparison to the predetermined standard curve. The IC50 was determined after three different experiments. The selectivity index was calculated from Eq. (1):
(§2) (1) Selectivity index=IC50COX−1/IC50COX−2

The next series has as its target T2, COX-2 (Homo sapiens, UniProt P35354).
T2 construct: purchased
T2 sequence (P35354 18-604): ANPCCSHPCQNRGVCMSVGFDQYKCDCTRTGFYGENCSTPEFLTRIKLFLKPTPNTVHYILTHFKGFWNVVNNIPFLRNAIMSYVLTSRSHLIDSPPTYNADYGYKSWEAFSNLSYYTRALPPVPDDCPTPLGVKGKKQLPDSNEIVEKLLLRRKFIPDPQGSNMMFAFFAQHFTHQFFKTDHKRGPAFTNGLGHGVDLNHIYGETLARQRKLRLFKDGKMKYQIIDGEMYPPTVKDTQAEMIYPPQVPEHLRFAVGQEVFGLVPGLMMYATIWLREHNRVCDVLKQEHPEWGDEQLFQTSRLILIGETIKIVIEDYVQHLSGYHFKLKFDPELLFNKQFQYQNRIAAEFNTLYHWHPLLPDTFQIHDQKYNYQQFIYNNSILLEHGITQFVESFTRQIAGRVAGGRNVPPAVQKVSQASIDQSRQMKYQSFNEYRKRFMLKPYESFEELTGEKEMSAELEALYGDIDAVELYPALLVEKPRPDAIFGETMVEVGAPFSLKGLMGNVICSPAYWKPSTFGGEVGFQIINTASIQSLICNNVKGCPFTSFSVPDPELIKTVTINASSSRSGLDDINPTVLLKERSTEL
The series is described as follows: COX inhibitor screening assay, COX-2. The series is classed as biochemical. The method, then: as §1, §2

For series [2] the following is noted: cited from earlier work.

Regarding `COc1ccc2c(c1)c(CC(=O)O)c(C)n2C(=O)c1ccc(Cl)cc1` [Indomethacin, indomethacin], in series [1], the “Rat paw edema after treatment” value is “significantly relieved”. In addition, the Rat paw size in series [1] (indomethacin 10 mg/kg oral, Time (h) 1) was 0.7 cm (4×) and 0.75 cm (3×); in series [1] (indomethacin 10 mg/kg oral, Time (h) 2), 0.7 cm and 0.6 cm (3×) and 0.55 cm (2×) and 0.5 cm; in series [1] (indomethacin 10 mg/kg oral, Time (h) 3), 0.45 cm and 0.43 cm and 0.4 cm (2×) and 0.42 cm and 0.5 cm and 0.44 cm; in series [1] (indomethacin 10 mg/kg oral, Time (h) 4), 0.35 cm and 0.38 cm and 0.4 cm (3×) and 0.39 cm and 0.37 cm; in series [1] (indomethacin 10 mg/kg oral, Time (h) 5), 0.35 cm (2×) and 0.37 cm (3×) and 0.4 cm (2×); in series [1] (indomethacin 10 mg/kg oral, Time (h) 6), 0.55 cm and 0.52 cm and 0.5 cm and 0.65 cm and 0.6 cm (2×) and 0.59 cm.
For the compound `O=c1c(O)c(-c2ccc(O)c(O)c2)oc2cc(O)cc(O)c12` [Quercetin], in the series on 12-LOX (read-out: IC50 12-LOX), the IC50 was 3.33 µM.
Turning to `COc1c(C)c2c(c(O)c1C/C=C(\C)CCC(=O)O)C(=O)OC2` [Mycophenolic acid, mycophenolic acid], the IC50 against COX-1 stood at 4.62 µM; against COX-2, 0.14 µM; in the series with 12-LOX (printed as 5-LOX in abstract and b38, read-out: IC50 5-LOX), 4.49 µM; with 12-LOX (read-out: IC50 12-LOX), 4.49 µM. The compound further yielded a Selectivity index on COX-2 (IC50 COX-1/IC50 COX-2) of 33.00. Moreover, in series [2] (after MMF administration, ref Park, 2011), the “Time to maximum serum MPA concentration” value was 60 to 90 min. In series [2] (ref Margolis et al., 1999), the “Clinically attainable MPA concentration” value was 1 to 10 µM.
Take `Cc1ccc(-c2cc(C(F)(F)F)nn2-c2ccc(S(N)(=O)=O)cc2)cc1` [Celecoxib, celecoxib]: the “Rat paw edema after treatment” value in series [1] is reported as “significantly relieved”. Moreover, the Rat paw size in series [1] (celecoxib 10 mg/kg oral, Time (h) 1) was 0.75 cm (4×) and 0.71 cm and 0.7 cm and 0.73 cm; in series [1] (celecoxib 10 mg/kg oral, Time (h) 2) it was 0.75 cm and 0.65 cm (2×) and 0.7 cm and 0.67 cm and 0.68 cm and 0.6 cm; in series [1] (celecoxib 10 mg/kg oral, Time (h) 3), 0.55 cm and 0.45 cm and 0.5 cm (3×) and 0.49 cm and 0.4 cm; in series [1] (celecoxib 10 mg/kg oral, Time (h) 4) it was 0.5 cm (2×) and 0.48 cm and 0.45 cm (3×) and 0.4 cm; in series [1] (celecoxib 10 mg/kg oral, Time (h) 5) it was 0.4 cm (3×) and 0.45 cm and 0.43 cm and 0.38 cm and 0.42 cm; in series [1] (celecoxib 10 mg/kg oral, Time (h) 6) it was 0.6 cm (2×) and 0.56 cm and 0.55 cm (2×) and 0.65 cm and 0.5 cm.
